Results published in US6914045B2, “Glycopeptide antibiotics” (Wyeth Holdings Corporation, priority 2001, dated 2005).
Values after ≈ are worked out from the molar mass of the structure shown.

How the values were obtained:
Assay in all cases: in vitro antibacterial evaluation, MIC by broth dilution
Assay type in all cases: cell-based
[1] = test system: Enterococcus sp.; settings: broth dilution, 18 hours at 35° C.; for MIC Enterococcus faecalis (ATCC 29212): strain ATCC 29212; for MIC Enterococcus faecalis (GC 2242): strain GC 2242; for MIC Enterococcus faecium (GC 2243): strain GC 2243; for MIC Enterococcus faecalis (GC 2691): strain GC 2691; for MIC Enterococcus faecalis (GC 3059): strain GC 3059; for MIC Enterococcus faecalis (GC 4552): strain GC 4552; for MIC Enterococcus faecalis (GC 4553): strain GC 4553; for MIC Enterococcus faecalis (GC 4554): strain GC 4554; for MIC Enterococcus faecium (GC 4556): strain GC 4556; for MIC Enterococcus faecium (GC 4557): strain GC 4557; for MIC Enterococcus avium (GC 4558): strain GC 4558; for MIC Enterococcus faecalis (GC 6189): strain GC 6189
Procedure, shortened: (§1)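 Inoculum 5×10^5 CFU/mL; concentrations 64 to 0.06 μg/mL; MIC defined as lowest inhibitory level. Conducted by broth dilution under NCCLS guidelines.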

[2] = test system: Staphylococcus sp.; settings: broth dilution, 18 hours at 35° C.; for MIC Staphylococcus aureus (ATCC 29213): strain ATCC 29213; for MIC Staphylococcus aureus (GC 1131): strain GC 1131; for MIC Staphylococcus aureus (GC 3051): strain GC 3051; for MIC Staphylococcus aureus (GC 3053): strain GC 3053; for MIC Staphylococcus aureus (GC 4541): strain GC 4541; for MIC Staphylococcus aureus (GC 4542): strain GC 4542; for MIC Staphylococcus aureus-SMITH (GC 4543): strain GC 4543; for MIC Staphylococcus aureus (GC 4544): strain GC 4544; for MIC Staphylococcus aureus (GC 4545): strain GC 4545; for MIC Staphylococcus haemolyticus (GC 4546): strain GC 4546; for MIC Coagulase Negative Staphylococcus (GC 4547): strain GC 4547; for MIC Coagulase Negative Staphylococcus (GC 4548): strain GC 4548; for MIC Coagulase Negative Staphylococcus (GC 4549): strain GC 4549; for MIC Coagulase Negative Staphylococcus (GC 4551): strain GC 4551; for MIC Coagulase Negative Staphylococcus (GC 6257): strain GC 6257
Procedure, shortened: as §1

[3] = test system: Streptococcus sp.; settings: broth dilution, 18 hours at 35° C.; for MIC Streptococcus pneumoniae (ATCC 6301): strain ATCC 6301; for MIC Streptococcus pneumoniae (GC 1894): strain GC 1894; for MIC Streptococcus pyogenes (GC 4563): strain GC 4563; for MIC Streptococcus agalactiae (GC 4564): strain GC 4564; for MIC Streptococcus pneumoniae (GC 4565): strain GC 4565
Procedure, shortened: as §1

[4] = test system: Escherichia coli; settings: broth dilution, 18 hours at 35° C.; for MIC Escherichia coli (ATCC 25922): strain ATCC 25922; for MIC Escherichia coli (GC 4559): strain GC 4559; for MIC Escherichia coli (GC 4560): strain GC 4560
Procedure, shortened: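 Broth dilution in Muller-Hinton II medium per NCCLS standard M7-A2, with an inoculum of 5×10^5 CFU/mL and antibiotic tested over 64-0.06 μg/mL. MIC was taken as the lowest concentration inhibiting visible growth.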

| MIC Enterococcus faecalis (ATCC 29212) [1] | MIC Enterococcus faecalis (GC 2242) [1] | MIC Enterococcus faecium (GC 2243) [1] | MIC Enterococcus faecalis (GC 2691) [1] | MIC Enterococcus faecalis (GC 3059) [1] | MIC Enterococcus faecalis (GC 4552) [1] | MIC Enterococcus faecalis (GC 4553) [1] | MIC Enterococcus faecalis (GC 4554) [1] | MIC Enterococcus faecium (GC 4556) [1] | MIC Enterococcus faecium (GC 4557) [1] | MIC Enterococcus avium (GC 4558) [1] | MIC Enterococcus faecalis (GC 6189) [1] | MIC Staphylococcus aureus (ATCC 29213) [2] | MIC Staphylococcus aureus (GC 1131) [2] | MIC Staphylococcus aureus (GC 3051) [2] | MIC Staphylococcus aureus (GC 3053) [2] | MIC Staphylococcus aureus (GC 4541) [2] | MIC Staphylococcus aureus (GC 4542) [2] | MIC Staphylococcus aureus-SMITH (GC 4543) [2] | MIC Staphylococcus aureus (GC 4544) [2] | SMILES | also measured |
| --- | --- | --- | --- | --- | --- | --- | --- | --- | --- | --- | --- | --- | --- | --- | --- | --- | --- | --- | --- | --- | --- |
| 128 µg/mL (≈ 121 µM) | 128 µg/mL (≈ 121 µM) | 128 µg/mL (≈ 121 µM) | 128 µg/mL (≈ 121 µM) | >128 µg/mL | 128 µg/mL (≈ 121 µM) | 64 µg/mL (≈ 60.3 µM) | 128 µg/mL (≈ 121 µM) | 128 µg/mL (≈ 121 µM) | 32 µg/mL (≈ 30.1 µM) | 64 µg/mL (≈ 60.3 µM) | 128 µg/mL (≈ 121 µM) | 64 µg/mL (≈ 60.3 µM) | 32 µg/mL (≈ 30.1 µM) | 64 µg/mL (≈ 60.3 µM) | 64 µg/mL (≈ 60.3 µM) | 64 µg/mL (≈ 60.3 µM) | 64 µg/mL (≈ 60.3 µM) | 64 µg/mL (≈ 60.3 µM) | 64 µg/mL (≈ 60.3 µM) | CC(c1ccccc1)C1NC(=O)CNC(=O)C(CO)NC(=O)C(C(O)C2CNC(=N)N2C2OC(CO)C(O)C(O)C2O)NC(=O)C(C(O)C2CNC(=N)N2)NC(=O)C(Cc2ccc3oc(-c4ccoc4)nc3c2)NC1=O (stereo not drawn) [Example 38, Cyclo[3-[2-(3-furyl)-1,3-benzoxazol-5-yl]alanyl-3-(2-iminoimidazolidin-4-yl)seryl-3-(3-hexopyranosyl-2-iminoimidazolidin-4-yl)serylserylglycyl-β-methylphenylalanyl]] | MIC Staphylococcus aureus (GC 4545) [2]: 32 µg/mL (≈ 30.1 µM); MIC Staphylococcus haemolyticus (GC 4546) [2]: 16 µg/mL (≈ 15.1 µM); MIC Coagulase Negative Staphylococcus (GC 4547) [2]: 32 µg/mL (≈ 30.1 µM); MIC Coagulase Negative Staphylococcus (GC 4548) [2]: 32 µg/mL (≈ 30.1 µM); MIC Coagulase Negative Staphylococcus (GC 4549) [2]: 64 µg/mL (≈ 60.3 µM); MIC Coagulase Negative Staphylococcus (GC 4551) [2]: 64 µg/mL (≈ 60.3 µM); MIC Coagulase Negative Staphylococcus (GC 6257) [2]: 16 µg/mL (≈ 15.1 µM); MIC Streptococcus pneumoniae (ATCC 6301) [3]: 32 µg/mL (≈ 30.1 µM); MIC Streptococcus pneumoniae (GC 1894) [3]: 32 µg/mL (≈ 30.1 µM); MIC Streptococcus pyogenes (GC 4563) [3]: 32 µg/mL (≈ 30.1 µM); MIC Streptococcus agalactiae (GC 4564) [3]: 32 µg/mL (≈ 30.1 µM); MIC Streptococcus pneumoniae (GC 4565) [3]: 64 µg/mL (≈ 60.3 µM); MIC Escherichia coli (ATCC 25922) [4]: 64 µg/mL (≈ 60.3 µM); MIC Escherichia coli (GC 4559) [4]: 64 µg/mL (≈ 60.3 µM); MIC Escherichia coli (GC 4560) [4]: 32 µg/mL (≈ 30.1 µM) |
| 64 µg/mL (≈ 55.8 µM) | 64 µg/mL (≈ 55.8 µM) | 16 µg/mL (≈ 14 µM) | 64 µg/mL (≈ 55.8 µM) | 64 µg/mL (≈ 55.8 µM) | 64 µg/mL (≈ 55.8 µM) | 16 µg/mL (≈ 14 µM) | 64 µg/mL (≈ 55.8 µM) | 64 µg/mL (≈ 55.8 µM) | 4 µg/mL (≈ 3.49 µM) | 8 µg/mL (≈ 6.98 µM) | 64 µg/mL (≈ 55.8 µM) | 32 µg/mL (≈ 27.9 µM) | 16 µg/mL (≈ 14 µM) | 16 µg/mL (≈ 14 µM) | 16 µg/mL (≈ 14 µM) | 16 µg/mL (≈ 14 µM) | 16 µg/mL (≈ 14 µM) | 16 µg/mL (≈ 14 µM) | 16 µg/mL (≈ 14 µM) | CC(c1ccccc1)C1NC(=O)CNC(=O)C(CO)NC(=O)C(C(O)C2CNC(=N)N2C2OC(CO)C(O)C(O)C2O)NC(=O)C(C(O)C2CNC(=N)N2)NC(=O)C(Cc2ccc3oc(SCC(=O)c4ccccc4)nc3c2)NC1=O (centres unmarked) [Example 48] | MIC Staphylococcus aureus (GC 4545) [2]: 16 µg/mL (≈ 14 µM); MIC Staphylococcus haemolyticus (GC 4546) [2]: 8 µg/mL (≈ 6.98 µM); MIC Coagulase Negative Staphylococcus (GC 4547) [2]: 4 µg/mL (≈ 3.49 µM); MIC Coagulase Negative Staphylococcus (GC 4548) [2]: 8 µg/mL (≈ 6.98 µM); MIC Coagulase Negative Staphylococcus (GC 4549) [2]: 4 µg/mL (≈ 3.49 µM); MIC Coagulase Negative Staphylococcus (GC 4551) [2]: 16 µg/mL (≈ 14 µM); MIC Streptococcus pneumoniae (ATCC 6301) [3]: 16 µg/mL (≈ 14 µM); MIC Streptococcus pneumoniae (GC 1894) [3]: 8 µg/mL (≈ 6.98 µM); MIC Streptococcus pyogenes (GC 4563) [3]: 8 µg/mL (≈ 6.98 µM); MIC Streptococcus agalactiae (GC 4564) [3]: 16 µg/mL (≈ 14 µM); MIC Streptococcus pneumoniae (GC 4565) [3]: 32 µg/mL (≈ 27.9 µM); MIC Escherichia coli (ATCC 25922) [4]: 32 µg/mL (≈ 27.9 µM); MIC Escherichia coli (GC 4559) [4]: 32 µg/mL (≈ 27.9 µM); MIC Escherichia coli (GC 4560) [4]: 4 µg/mL (≈ 3.49 µM) |
| 32 µg/mL (≈ 28.7 µM) | 32 µg/mL (≈ 28.7 µM) | 16 µg/mL (≈ 14.3 µM) | 32 µg/mL (≈ 28.7 µM) | 64 µg/mL (≈ 57.4 µM) | 64 µg/mL (≈ 57.4 µM) | 16 µg/mL (≈ 14.3 µM) | 32 µg/mL (≈ 28.7 µM) | 64 µg/mL (≈ 57.4 µM) | 8 µg/mL (≈ 7.17 µM) | 16 µg/mL (≈ 14.3 µM) | 32 µg/mL (≈ 28.7 µM) | 8 µg/mL (≈ 7.17 µM) | 8 µg/mL (≈ 7.17 µM) | 8 µg/mL (≈ 7.17 µM) | 8 µg/mL (≈ 7.17 µM) | 8 µg/mL (≈ 7.17 µM) | 8 µg/mL (≈ 7.17 µM) | 8 µg/mL (≈ 7.17 µM) | 8 µg/mL (≈ 7.17 µM) | CC(c1ccccc1)C1NC(=O)CNC(=O)C(CO)NC(=O)C(C(O)C2CNC(=N)N2C2OC(CO)C(O)C(O)C2O)NC(=O)C(C(O)C2CNC(=N)N2)NC(=O)C(Cc2ccc3oc(-c4ccc(N(C)C)cc4)nc3c2)NC1=O (stereo not drawn) [Example 29, Cyclo[3-[2-[4-(dimethylamino)phenyl]-1,3-benzoxazol-5-yl]alanyl-3-(2-iminoimidazolidin-4-yl)-seryl-3-(3-hexopyranosyl-2-iminoimidazolidin-4-yl)serylserylglycyl-β-methylphenyl-alanyl]] | MIC Staphylococcus aureus (GC 4545) [2]: 8 µg/mL (≈ 7.17 µM); MIC Staphylococcus haemolyticus (GC 4546) [2]: 4 µg/mL (≈ 3.59 µM); MIC Coagulase Negative Staphylococcus (GC 4547) [2]: 4 µg/mL (≈ 3.59 µM); MIC Coagulase Negative Staphylococcus (GC 4548) [2]: 4 µg/mL (≈ 3.59 µM); MIC Coagulase Negative Staphylococcus (GC 4549) [2]: 2 µg/mL (≈ 1.79 µM); MIC Coagulase Negative Staphylococcus (GC 4551) [2]: 8 µg/mL (≈ 7.17 µM); MIC Coagulase Negative Staphylococcus (GC 6257) [2]: 4 µg/mL (≈ 3.59 µM); MIC Streptococcus pneumoniae (ATCC 6301) [3]: 32 µg/mL (≈ 28.7 µM); MIC Streptococcus pneumoniae (GC 1894) [3]: 32 µg/mL (≈ 28.7 µM); MIC Streptococcus pyogenes (GC 4563) [3]: 16 µg/mL (≈ 14.3 µM); MIC Streptococcus agalactiae (GC 4564) [3]: 32 µg/mL (≈ 28.7 µM); MIC Streptococcus pneumoniae (GC 4565) [3]: 32 µg/mL (≈ 28.7 µM); MIC Escherichia coli (ATCC 25922) [4]: 16 µg/mL (≈ 14.3 µM); MIC Escherichia coli (GC 4559) [4]: 16 µg/mL (≈ 14.3 µM); MIC Escherichia coli (GC 4560) [4]: 4 µg/mL (≈ 3.59 µM) |
